Experimental findings from patent US10732108B2, “Fluorogenic water soluble hydrazine sensors” (priority 2017, dated 2020) are described below.

The nature of the series: Hydrazine diffusion into vesicles assay (fluorimetric kinetic hydrazine transmembrane diffusion, SUVs encapsulating compound 2). The conditions noted are these: for hydrazine diffusion across a phospholipid membrane, t ½: FIG. 9, membranes of the phosphatidylcholine lipid.

Method: (iii) Hydrazine Diffusion into Vesicles Assay
Example 5: Hydrazine Diffusion Assay Procedure
1.0 mg of phosphatidylcholine lipid in chloroform solution was dispensed into a 20 mL scintillation vial, dried under a stream of Ar, and put under house vacuum in a desiccator overnight. The vial was then removed from the desiccator, purged of air with a stream of Ar, closed, and sealed with Parafilm.
6.0 g of monobasic sodium phosphate was dissolved in 1 L MilliQ water to make a 50 mM solution. The pH of the solution was raised to 7.40 by addition of 5N NaOH (typically 9 mL). Depending on the amount of NaOH added, NaCl was added (typically 10 g) to form a 500 mosM buffer.
Loosely capped Falcon tubes containing 45 ml of buffer or MilliQ water were placed in a desiccator and put under house vacuum overnight. The desiccator was then filled with Ar by first capping the inlet with a rubber septum, then piercing the septum with two Ar-filled balloons with attached needles, then simultaneously closing the desiccator valve to vacuum and opening the desiccator valve to the inlet. The desiccator top was then removed and the Falcon tubes quickly closed and sealed with Parafilm.
425-430 mg of hydrazine hydrochloride was weighed and dispensed into a 25 ml reagent bottle pre-filled with Ar; the bottle was then purged of air with a stream of Ar and closed. 25 ml degassed MilliQ water was added to the bottle, along with 300 μl 5N NaOH, under a stream of Ar. The bottle was closed and shaken vigorously. The pH was then adjusted to 7.40±0.02 with 5N NaOH, purging of air with Ar immediately after each pH measurement with a glass electrode. The bottle was purged of air with a stream of Ar, closed, and sealed with Parafilm.
A suspension of Sepharose® CL-4B in 10-30% ethanol (Sigma) was added to an 8.5-cm size-exclusion column. Methanol was washed out of the column by flushing with at least 5 column volumes of 50 mM phosphate buffer (described above, section B). Then the column was capped with a rubber septum, the septum was pierced with an Ar-filled balloon with attached needle, and the column was run until the meniscus descended to the top of the resin. Then, under a stream of Ar, the head space was filled with degassed buffer (described above, section C) and the Falcon tube containing the degassed buffer was purged of any incidental air with a stream of Ar, then closed. […]
The vesicles were loaded onto the column under a stream of Ar and then degassed phosphate buffer was added to the column under a stream of Ar; the column was subsequently run under Ar. […] Vesicles were not visible by eye or upon exposure to a UV lamp; vesicles were detected by directing the beam from a 5 mW green laser pointer horizontally through the cuvette; upon elution of the vesicles, bright scattering was visible.

Consider `CCCCCCCC/C=C\CCCCCCCC(=O)OC[C@H](COP(=O)([O-])OCC[N+](C)(C)C)OC(=O)CCCCCCC/C=C\CCCCCCCC` [18:1 PC (DOPC)], for which the “hydrazine diffusion across a phospholipid membrane, t ½” value worked out at 0.907 ± 0.0933 h.

For the compound `CCCCCCCC/C=C\CCCCCCCCCCCC(=O)OC[C@H](COP(=O)([O-])OCC[N+](C)(C)C)OC(=O)CCCCCCCCCCC/C=C\CCCCCCCC` [di22:1 PC (DEPC)], the “hydrazine diffusion across a phospholipid membrane, t ½” value amounted to 1.65 ± 0.1 h. The “N2H4 Diff. t1/2 (min) pH = 6.30” value (pH = 6.30, SUVs of the lipid) came out at 583 ± 25 min. The “N2H4 Diff. t1/2 (min) pH = 7.40” value (pH = 7.40, SUVs of the lipid) is listed as 98.9 ± 6.0 min.
